Results taken from US9126945B2, “N-(3-carbamoylphenly)-1H-pyrazole-5-carboxamide derivatives and the use thereof for controlling animal pests” (BAYER INTELLECTUAL PROPERTY GMBH, priority 2011, dated 2015).

Key:
Assay type in all cases: in vivo
Phaedon cochleariae = Phaedon cochleariae spray test (PHAECO), cabbage leaves, ppm; settings: 168 h, 4 ppm, 7 dat
Description: Phaedon cochleariae Spray Test (PHAECO)
(§1) Solvent: 7 parts by weight of dimethylformamide
(§2) Emulsifier: 2 parts by weight of alkylaryl polyglycol ether
(§3) If the addition of ammonium salts or/and penetrants is required, these are in each case added in a concentration of 1000 ppm to the solution of the preparation.

Heliothis armigera = Heliothis armigera spray test (HELIAR); settings: Helicoverpa armigera, 168 h, 7 dat
Description: Heliothis armigera Spray Test (HELIAR)
as §1, §2, §3

[1] = test system: Boophilus microplus females of the SP-resistant Parkhurst strain; test: Boophilus microplus test (DIP); settings: 100 ppm
Experimental: Boophilus microplus Test (DIP)
Test animals: adult engorged Boophilus microplus females of the SP-resistant Parkhurst strain
(§4) Solvent: dimethyl sulphoxide
10 mg of active compound are dissolved in 0.5 ml of dimethyl sulphoxide. For the purpose of preparing a suitable formulation, the active compound solution is diluted with water to the concentration desired in each case.
This active compound preparation is pipetted into tubes. 8-10 ticks are transferred into a further tube with holes. The tube is immersed into the active compound formulation, and all ticks are completely wetted. After the liquid has rum off, the ticks are transferred to filter discs in plastic dishes and kept in a climatized room. The activity is assessed after 7 days by laying of fertile eggs. Eggs whose fertility is not outwardly visible are stored in glass tubes in a climate-controlled cabinet until the larvae hatch. An efficacy of 100% means that none of the ticks has laid any fertile eggs.
10 mg of active compound are dissolved in 0.5 ml of dimethyl sulphoxide. For the purpose of preparing a suitable formulation, the active compound solution is diluted with water to the concentration desired in each case (in ppm).
This active compound preparation is pipetted into tubes. 8-10 ticks are transferred into a further tube with holes. The tube is immersed into the active compound formulation, and all ticks are completely wetted. After the liquid has run out, the ticks are transferred onto filter discs in plastic dishes and stored in a climate-controlled room.
The activity is assessed after the desired time by laying of fertile eggs. Eggs whose fertility is not evident from the outside are kept in glass tubes in a climate-controlled cabinet until the larvae have hatched. An effect of 100% means that none of the ticks has laid any fertile eggs.

Liriomyza trifolii = Liriomyza trifolii spray test (LIRITR); settings: 168 h, 7 dat
Description: Liriomyza trifolii Spray Test (LIRITR)
as §3

Lucilia cuprina larvae = test: Lucilia cuprina test (LUCICU); settings: 100 ppm; after 2 days
Experimental: Lucilia cuprina Test (LUCICU)
as §4
Vessels containing horse meat treated with the active compound preparation of the desired concentration are populated with about 20 Lucilia cuprina larvae.
After 2 days, the kill in % is determined.

Cn1nc(C(F)(F)C(F)(F)F)c(C(F)(F)F)c1C(=O)Nc1ccc(Cl)c(C(=O)NC2(C#N)CC2)c1 [Example 10]
100%: inhibition at 4 ppm (Phaedon cochleariae) | inhibition at 20 ppm (Heliothis armigera; 20 ppm) | inhibition at 100 ppm (Heliothis armigera; 100 ppm) | efficacy in % (laying of fertile eggs) ([1]; after 7 days) | inhibition at 100 ppm ([1]; Rhipicephalus microplus, 168 h, BOOPMI DIP, 7 dat) | inhibition at 500 g/ha (Liriomyza trifolii) | kill in % (efficacy) (Lucilia cuprina larvae)
